Measurements reported in PubChem BioAssay (NCI).
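96-well plates; 48 h exposure; 5 concentrations. Endpoints by linear interpolation between flanking doses. Not reached: highest tested concentration assigned. The concentration for 50% growth inhibition is given as GI50. TGI: total growth inhibition.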

Key:
Experiment in all cases: NCI anticancer screen, dose series, 48 h
[1] = tested on: MCF7 breast
[2] = tested on: NCI-H226 lung
[3] = tested on: RXF 393 renal
[4] = tested on: NCI-H460 lung
[5] = tested on: MDA-MB-231 breast
[6] = tested on: NCI-H522 lung
[7] = tested on: ACHN renal
[8] = tested on: HCT-116 colon
[9] = tested on: PC-3 prostate
[10] = tested on: SF-539 CNS
[11] = tested on: TK-10 renal
[12] = tested on: M14 melanoma
[13] = tested on: IGROV1 ovarian
[14] = tested on: SF-268 CNS
[15] = tested on: SNB-19 CNS
[16] = tested on: SK-MEL-28 melanoma
[17] = tested on: BT-549 breast
[18] = tested on: EKVX NSCLC
[19] = tested on: MDA-MB-435
[20] = tested on: OVCAR-3 ovarian
[21] = tested on: SK-OV-3 ovarian
[22] = tested on: SK-MEL-2 melanoma
[23] = tested on: DU-145 prostate
[24] = tested on: HOP-62 NSCLC
[25] = tested on: HS 578T breast
[26] = tested on: SN12C renal
[27] = tested on: KM12 colon
[28] = tested on: CAKI-1 renal
[29] = tested on: HCT-15 colon
[30] = tested on: MALME-3M melanoma
[31] = tested on: T-47D breast
[32] = tested on: UO-31 renal
[33] = tested on: UACC-62 melanoma
[34] = tested on: SNB-75 CNS
[35] = tested on: HOP-92 NSCLC
[36] = tested on: UACC-257 melanoma
[37] = tested on: HCC-2998 colon
[38] = tested on: SW-620 colon
[39] = tested on: OVCAR-8 ovarian
[40] = tested on: A498 renal
[41] = tested on: U251 CNS
[42] = tested on: SF-295 CNS
[43] = tested on: NCI/ADR-RES ovarian
[44] = tested on: OVCAR-5 ovarian
[45] = tested on: 786-0 renal
[46] = tested on: LOX IMVI melanoma
[47] = tested on: A549 NSCLC
[48] = tested on: SK-MEL-5 melanoma
[49] = tested on: CCRF-CEM leukemia
[50] = tested on: COLO 205 colon
[51] = tested on: RPMI-8226 leukemia
[52] = tested on: OVCAR-4 ovarian

## CCN1CCN(S(=O)(=O)c2oc(-c3ccc(Cl)cc3)nc2C#N)CC1
[1]
  GI50: 2.3 µM
  TGI: 10.4 µM
[2]
  GI50: 2.46 µM
  TGI: 7.01 µM
[3]
  GI50: 1.89 µM
  TGI: 3.5 µM
[4]
  GI50: 15.8 µM
  TGI: 39.9 µM
[5]
  GI50: 14.5 µM
  TGI: 29.1 µM
[6]
  GI50: 1.48 µM
  TGI: 3.06 µM
[7]
  GI50: 1.91 µM
  TGI: 3.42 µM
[8]
  GI50: 2.12 µM
  TGI: 6.98 µM
[9]
  GI50: 13.3 µM
  TGI: 26.9 µM
[10]
  GI50: 6.47 µM
  TGI: 19.8 µM
[11]
  GI50: 12.8 µM
  TGI: 25.8 µM
[12]
  GI50: 3.5 µM
  TGI: 15.7 µM
[13]
  GI50: 15.8 µM
  TGI: 37 µM
[14]
  GI50: 11.8 µM
  TGI: 41.3 µM
[15]
  GI50: 15.7 µM
  TGI: 29.3 µM
[16]
  GI50: 3.6 µM
  TGI: 12.3 µM
[17]
  GI50: 4.87 µM
  TGI: 18.5 µM
[18]
  GI50: 16 µM
  TGI: 29.8 µM
[19]
  GI50: 4.47 µM
  TGI: 16.3 µM
[20]
  GI50: 1.95 µM
  TGI: 3.74 µM
[21]
  GI50: 18.7 µM
  TGI: 36.9 µM
[22]
  GI50: 14.5 µM
  TGI: 28.3 µM
[23]
  GI50: 7.58 µM
  TGI: 21 µM
[24]
  GI50: 17.2 µM
  TGI: 33.6 µM
[25]
  GI50: 20.9 µM
  TGI: 69.4 µM
[26]
  GI50: 11.4 µM
  TGI: 24.5 µM
[27]
  GI50: 15.7 µM
  TGI: 42.8 µM
[28]
  GI50: 1.38 µM
  TGI: 2.74 µM
[29]
  GI50: 1.76 µM
  TGI: 3.92 µM
[30]
  GI50: 2.07 µM
  TGI: 4.12 µM
[31]
  GI50: 2.24 µM
  TGI: 6.24 µM
[32]
  GI50: 4.1 µM
  TGI: 15.9 µM
[33]
  GI50: 11.2 µM
  TGI: 24.2 µM
[34]
  GI50: 14.1 µM
  TGI: 27.4 µM
[35]
  GI50: 2.75 µM
  TGI: 10.1 µM
[36]
  GI50: 10.8 µM
  TGI: 23.1 µM
[37]
  GI50: 15.8 µM
  TGI: 31.4 µM
[38]
  GI50: 1.69 µM
  TGI: 4.17 µM
[39]
  GI50: 12.9 µM
  TGI: 27.2 µM
[40]
  GI50: 29.4 µM
  TGI: 82.4 µM
[41]
  GI50: 14.9 µM
  TGI: 30.9 µM
[42]
  GI50: 17.3 µM
  TGI: 31.8 µM
[43]
  GI50: 18.7 µM
  TGI: 62.7 µM
[44]
  GI50: 14.5 µM
  TGI: 29.4 µM
[45]
  GI50: 2.78 µM
  TGI: 8.19 µM
[46]
  GI50: 1.13 µM
  TGI: 2.54 µM
[47]
  GI50: 17.8 µM
  TGI: 35.1 µM
[48]
  GI50: 15.9 µM
  TGI: 29.6 µM
[49]
  GI50: 1 µM
  TGI: 8.75 µM
[50]
  GI50: 2.07 µM
  TGI: 3.76 µM
[51]
  GI50: 3.26 µM
  TGI: 13.5 µM
[52]
  GI50: 4.04 µM
  TGI: 23.4 µM
